Assay results: patent publication US20190021380A1 (priority 2014, published 2019)

These molecules were tested against T1R1/T1R3 receptor (Felis catus, UniProt E3UMS2) (assay: cell-based). Conditions: alone, in words.
Type: cell-based
Description: HEK293 cells that stably express T1R3 and inducibly express T1R1 were exposed to transmembrane compounds alone or in combination with one or more amino acids and/or one or more nucleotides to activate the umami receptor. Activation of the T1R1/T1R3 receptor was detected by a change in intracellular calcium levels using a calcium sensitive fluorescent dye. Cells that express T1R3 but not T1R1 were used as a control. A FLIPR® Tetra or a FlexStation® 3 was used for data capture.
In each experiment, serial dilutions of up to 10 mM of the transmembrane compound were added to the T1R1/T1R3-expressing cells.

Row | Structure (SMILES) | activation of T1R1/T1R3 by the compound alone
1 | COc1cc(C(=O)NC(C(N)=O)c2ccccc2)cc(Cl)c1OC (centres unmarked) [N-(2-amino-2-oxo-1-phenylethyl)-3-chloro-4,5-dimethoxybenzamide] | failed to activate T1R1/T1R3 alone
2 | CCCC(CCC)C(=O)Nc1ccc2c(c1)OCO2 [N-(benzo[d][1,3]dioxol-5-yl)-2-propylpentanamide] | agonist of T1R1/T1R3 alone

Same assay, conditions: in the presence of 0.2 mM IMP

Row | Structure (SMILES) | Max resp ΔF/F +IMP (0.2 mM) | Thres (mM) +IMP (0.2 mM)
3 | O=C(Nc1ccccc1Br)N[C@@H]1c2ccccc2C[C@@H]1O (stereo in doubt) [1-(2-bromophenyl)-3-((1R,2S)-2-hydroxy-2,3-dihydro-1H-inden-1-yl)urea] | 0.378 | 3 mM
4 | O=C(CN1C(=O)C(=O)N(Cc2ccccc2)C1=O)c1ccccc1 [1-benzyl-3-(2-oxo-2-phenylethyl)imidazolidine-2,4,5-trione] | 1.140 | 0.08 mM
5 | CSc1ccc(-c2nnn(Cc3ccccn3)n2)cc1 [2-((5-(4-(methylthio)phenyl)-2H-tetrazol-2-yl)methyl)pyridine] | 0.678 | 0.1575 mM
6 | CCC(CC)NC(=O)c1ccc(OC)c(OC)c1 [3,4-dimethoxy-N-(pentan-3-yl)benzamide] | 0.9975 | 0.5 mM
7 | CCC(CC)NC(=O)c1ccc(C)c(C)c1 [3,4-dimethyl-N-(pentan-3-yl)benzamide] | 1.5475 | 0.525 mM
8 | COc1ccc(C(=O)NC(C)c2ccccc2)cc1C (centres unmarked) [4-methoxy-3-methyl-N-(1-phenylethyl)benzamide] | 1.1775 | 0.35 mM
9 | CCCC(C)NC(=O)c1ccc(OC)c(C)c1 (centres unmarked) [4-methoxy-3-methyl-N-(pentan-2-yl)benzamide] | 1.5875 | 0.025 mM
10 | CCC(CC)NC(=O)c1ccc(Br)o1 [5-bromo-N-(pentan-3-yl)furan-2-carboxamide] | 1.8425 | 0.3 mM
11 | COc1ccc(/C=C/C(=O)NC2CCCCC2C)cc1 (centres unmarked) [(E)-3-(4-methoxyphenyl)-N-(2-methylcyclohexyl)acrylamide] | 1.7725 | 0.3 mM
12 | CCC(CC)NC(=O)/C=C/c1ccc(OC)cc1 [(E)-3-(4-methoxyphenyl)-N-(pentan-3-yl)acrylamide] | 1.443 | 0.0375 mM
13 | COC(=O)C(NC(=O)/C=C/c1cccs1)C(C)C (centres unmarked) [(E)-methyl 3-methyl-2-(3-(thiophen-2-yl)acrylamido)butanoate] | 0.7375 | 1 mM
14 | O=C(NCCc1ccccc1)C(=O)NCc1cccnc1 [N1-phenethyl-N2-(pyridin-3-ylmethyl)oxalamide] | 0.7625 | 0.1 mM
15 | CC1CCCC(NC(=O)c2ccc3c(c2)OCO3)C1C (centres unmarked) [N-(2,3-dimethylcyclohexyl)benzo[d][1,3]dioxole-5-carboxamide] | 1.175 | 0.275 mM
16 | COc1cc(C(=O)NC(C(N)=O)c2ccccc2)cc(Cl)c1OC (centres unmarked) [N-(2-amino-2-oxo-1-phenylethyl)-3-chloro-4,5-dimethoxybenzamide] | 0.415 | 0.17 mM
17 | CCCC(CCC)C(=O)Nc1ccc2c(c1)OCO2 [N-(benzo[d][1,3]dioxol-5-yl)-2-propylpentanamide] | 0.908 | 0.0675 mM
18 | CCC(CC)NC(=O)c1ccc2c(c1)OCCO2 [N-(pentan-3-yl)-2,3-dihydrobenzo[b][1,4]dioxine-6-carboxamide] | 0.8725 | 0.075 mM

Same assay, conditions: in the presence of 0.2 mM IMP; relative to Ala

Row | Structure (SMILES) | Max resp % of Ala +IMP (0.2 mM)
19 | O=C(Nc1ccccc1Br)N[C@@H]1c2ccccc2C[C@@H]1O (stereo in doubt) [1-(2-bromophenyl)-3-((1R,2S)-2-hydroxy-2,3-dihydro-1H-inden-1-yl)urea] | 44.9%
20 | O=C(CN1C(=O)C(=O)N(Cc2ccccc2)C1=O)c1ccccc1 [1-benzyl-3-(2-oxo-2-phenylethyl)imidazolidine-2,4,5-trione] | 135.7%
21 | CSc1ccc(-c2nnn(Cc3ccccn3)n2)cc1 [2-((5-(4-(methylthio)phenyl)-2H-tetrazol-2-yl)methyl)pyridine] | 80.7%
22 | CCC(CC)NC(=O)c1ccc(OC)c(OC)c1 [3,4-dimethoxy-N-(pentan-3-yl)benzamide] | 81.0%
23 | CCC(CC)NC(=O)c1ccc(C)c(C)c1 [3,4-dimethyl-N-(pentan-3-yl)benzamide] | 125.7%
24 | COc1ccc(C(=O)NC(C)c2ccccc2)cc1C (centres unmarked) [4-methoxy-3-methyl-N-(1-phenylethyl)benzamide] | 95.6%
25 | CCCC(C)NC(=O)c1ccc(OC)c(C)c1 (centres unmarked) [4-methoxy-3-methyl-N-(pentan-2-yl)benzamide] | 128.9%
26 | CCC(CC)NC(=O)c1ccc(Br)o1 [5-bromo-N-(pentan-3-yl)furan-2-carboxamide] | 149.6%
27 | COc1ccc(/C=C/C(=O)NC2CCCCC2C)cc1 (centres unmarked) [(E)-3-(4-methoxyphenyl)-N-(2-methylcyclohexyl)acrylamide] | 144.0%
28 | CCC(CC)NC(=O)/C=C/c1ccc(OC)cc1 [(E)-3-(4-methoxyphenyl)-N-(pentan-3-yl)acrylamide] | 171.7%
29 | COC(=O)C(NC(=O)/C=C/c1cccs1)C(C)C (centres unmarked) [(E)-methyl 3-methyl-2-(3-(thiophen-2-yl)acrylamido)butanoate] | 59.9%
30 | O=C(NCCc1ccccc1)C(=O)NCc1cccnc1 [N1-phenethyl-N2-(pyridin-3-ylmethyl)oxalamide] | 61.9%
31 | CC1CCCC(NC(=O)c2ccc3c(c2)OCO3)C1C (centres unmarked) [N-(2,3-dimethylcyclohexyl)benzo[d][1,3]dioxole-5-carboxamide] | 95.4%
32 | COc1cc(C(=O)NC(C(N)=O)c2ccccc2)cc(Cl)c1OC (centres unmarked) [N-(2-amino-2-oxo-1-phenylethyl)-3-chloro-4,5-dimethoxybenzamide] | 49.4%
33 | CCCC(CCC)C(=O)Nc1ccc2c(c1)OCO2 [N-(benzo[d][1,3]dioxol-5-yl)-2-propylpentanamide] | 108.0%
34 | CCC(CC)NC(=O)c1ccc2c(c1)OCCO2 [N-(pentan-3-yl)-2,3-dihydrobenzo[b][1,4]dioxine-6-carboxamide] | 70.9%

Same assay, conditions: in the presence of 20 mM alanine

Row | Structure (SMILES) | Max resp ΔF/F +Alanine (20 mM) | Thres (mM) +Alanine (20 mM)
35 | O=C(Nc1ccccc1Br)N[C@@H]1c2ccccc2C[C@@H]1O (stereo in doubt) [1-(2-bromophenyl)-3-((1R,2S)-2-hydroxy-2,3-dihydro-1H-inden-1-yl)urea] | 0.3 | 3 mM
36 | O=C(CN1C(=O)C(=O)N(Cc2ccccc2)C1=O)c1ccccc1 [1-benzyl-3-(2-oxo-2-phenylethyl)imidazolidine-2,4,5-trione] | 1.3 | 1 mM
37 | CCC(CC)NC(=O)c1ccc(OC)c(OC)c1 [3,4-dimethoxy-N-(pentan-3-yl)benzamide] | 0.545 | 0.3 mM
38 | CCC(CC)NC(=O)c1ccc(C)c(C)c1 [3,4-dimethyl-N-(pentan-3-yl)benzamide] | 1.2150 | 3 mM
39 | COc1ccc(C(=O)NC(C)c2ccccc2)cc1C (centres unmarked) [4-methoxy-3-methyl-N-(1-phenylethyl)benzamide] | 0.51 | 3 mM
40 | CCCC(C)NC(=O)c1ccc(OC)c(C)c1 (centres unmarked) [4-methoxy-3-methyl-N-(pentan-2-yl)benzamide] | 1.5650 | 0.050 mM
41 | CCC(CC)NC(=O)c1ccc(Br)o1 [5-bromo-N-(pentan-3-yl)furan-2-carboxamide] | 1.575 | 1 mM
42 | COc1ccc(/C=C/C(=O)NC2CCCCC2C)cc1 (centres unmarked) [(E)-3-(4-methoxyphenyl)-N-(2-methylcyclohexyl)acrylamide] | 0.785 | 3 mM
43 | CCC(CC)NC(=O)/C=C/c1ccc(OC)cc1 [(E)-3-(4-methoxyphenyl)-N-(pentan-3-yl)acrylamide] | 0.7 | 0.148 mM
44 | COC(=O)C(NC(=O)/C=C/c1cccs1)C(C)C (centres unmarked) [(E)-methyl 3-methyl-2-(3-(thiophen-2-yl)acrylamido)butanoate] | 0.1175 | 10 mM
45 | O=C(NCCc1ccccc1)C(=O)NCc1cccnc1 [N1-phenethyl-N2-(pyridin-3-ylmethyl)oxalamide] | 0.3750 | 1 mM
46 | CC1CCCC(NC(=O)c2ccc3c(c2)OCO3)C1C (centres unmarked) [N-(2,3-dimethylcyclohexyl)benzo[d][1,3]dioxole-5-carboxamide] | 0.225 | 3 mM
47 | CCC(CC)NC(=O)c1ccc2c(c1)OCCO2 [N-(pentan-3-yl)-2,3-dihydrobenzo[b][1,4]dioxine-6-carboxamide] | 0.3125 | 0.3 mM

Same assay, conditions: in the presence of 20 mM alanine; relative to IMP

Row | Structure (SMILES) | Max resp % of IMP +Alanine (20 mM)
48 | O=C(Nc1ccccc1Br)N[C@@H]1c2ccccc2C[C@@H]1O (stereo in doubt) [1-(2-bromophenyl)-3-((1R,2S)-2-hydroxy-2,3-dihydro-1H-inden-1-yl)urea] | 33.0%
49 | O=C(CN1C(=O)C(=O)N(Cc2ccccc2)C1=O)c1ccccc1 [1-benzyl-3-(2-oxo-2-phenylethyl)imidazolidine-2,4,5-trione] | 127.6%
50 | CCC(CC)NC(=O)c1ccc(OC)c(OC)c1 [3,4-dimethoxy-N-(pentan-3-yl)benzamide] | 43.9%
51 | CCC(CC)NC(=O)c1ccc(C)c(C)c1 [3,4-dimethyl-N-(pentan-3-yl)benzamide] | 97.8%
52 | COc1ccc(C(=O)NC(C)c2ccccc2)cc1C (centres unmarked) [4-methoxy-3-methyl-N-(1-phenylethyl)benzamide] | 41.0%
53 | CCCC(C)NC(=O)c1ccc(OC)c(C)c1 (centres unmarked) [4-methoxy-3-methyl-N-(pentan-2-yl)benzamide] | 126.0%
54 | CCC(CC)NC(=O)c1ccc(Br)o1 [5-bromo-N-(pentan-3-yl)furan-2-carboxamide] | 126.8%
55 | COc1ccc(/C=C/C(=O)NC2CCCCC2C)cc1 (centres unmarked) [(E)-3-(4-methoxyphenyl)-N-(2-methylcyclohexyl)acrylamide] | 63.2%
56 | CCC(CC)NC(=O)/C=C/c1ccc(OC)cc1 [(E)-3-(4-methoxyphenyl)-N-(pentan-3-yl)acrylamide] | 64.1%
57 | COC(=O)C(NC(=O)/C=C/c1cccs1)C(C)C (centres unmarked) [(E)-methyl 3-methyl-2-(3-(thiophen-2-yl)acrylamido)butanoate] | 9.5%
58 | O=C(NCCc1ccccc1)C(=O)NCc1cccnc1 [N1-phenethyl-N2-(pyridin-3-ylmethyl)oxalamide] | 30.2%
59 | CC1CCCC(NC(=O)c2ccc3c(c2)OCO3)C1C (centres unmarked) [N-(2,3-dimethylcyclohexyl)benzo[d][1,3]dioxole-5-carboxamide] | 18.1%
60 | CCC(CC)NC(=O)c1ccc2c(c1)OCCO2 [N-(pentan-3-yl)-2,3-dihydrobenzo[b][1,4]dioxine-6-carboxamide] | 25.2%
